Data as given in PubChem BioAssay AID248 (DTP/NCI, 2004).
Where “and” joins values, the source holds several entries; their conditions need not be identical. Equal entries are not always repeated. Inconclusive results and toxic doses are left out. Rule as the data show it: active = T/C of 150% or more; inactive = T/C below 125%.

Tested on: L1210 leukemia ip in BDF1 mice, survival T/C
Assay: NCI In Vivo Anticancer Drug Screen. Data for tumor model L1210 Leukemia (intraperitoneal) in B6D2F1 (BDF1) mice
Conditions: endpoint: mean survival time, higher = longer survival
In short: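 Read-out is survival time, reported as the treated-group measurement over the vehicle-control measurement.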

[1] = dose: 100.0 mg/kg/injection, schedule: Q01DX001 (ip), vehicle: saline
[2] = dose: 200.0 mg/kg/injection, schedule: Q01DX001 (ip), vehicle: saline
[3] = dose: 100.0 mg/kg/injection, schedule: Q04DX003 (ip), vehicle: saline
[4] = dose: 200.0 mg/kg/injection, schedule: Q04DX003 (ip), vehicle: saline
[5] = dose: 100.0 mg/kg/injection, schedule: Q01DX009 (ip), vehicle: Klucel (hydroxypropylcellulose) (HPC)
[6] = dose: 100.0 mg/kg/injection, schedule: Q04DX003 (ip), vehicle: Klucel (hydroxypropylcellulose) (HPC)
[7] = dose: 200.0 mg/kg/injection, schedule: Q01DX009 (ip), vehicle: Klucel (hydroxypropylcellulose) (HPC)
[8] = dose: 200.0 mg/kg/injection, schedule: Q04DX003 (ip), vehicle: Klucel (hydroxypropylcellulose) (HPC)
[9] = dose: 400.0 mg/kg/injection, schedule: Q01DX009 (ip), vehicle: Klucel (hydroxypropylcellulose) (HPC)
[10] = dose: 400.0 mg/kg/injection, schedule: Q04DX003 (ip), vehicle: Klucel (hydroxypropylcellulose) (HPC)
[11] = dose: 100.0 mg/kg/injection, schedule: Q04DX003 (ip), vehicle: saline with Tween-80
[12] = dose: 200.0 mg/kg/injection, schedule: Q04DX003 (ip), vehicle: saline with Tween-80
[13] = dose: 400.0 mg/kg/injection, schedule: Q04DX003 (ip), vehicle: saline with Tween-80

Measured: T/C

COc1nc2c(=O)[nH]cnc2n1C1OC(CO)C(O)C1O (stereo unspecified)
inactive: [1] 96 % of control | [2] 100 % of control | dose: 400.0 mg/kg/injection, schedule: Q01DX001 (ip), vehicle: saline 97 % of control

Nc1nc2nc[nH]c2c(N)c1Br (tested in a mixture with another compound)
inactive: dose: 50.0 mg/kg/injection, schedule: Q01DX009 (ip), vehicle: saline 95 % of control | dose: 50.0 mg/kg/injection, schedule: Q04DX003 (ip), vehicle: saline 96 % of control | [1] 100 % of control | dose: 100.0 mg/kg/injection, schedule: Q01DX009 (ip), vehicle: saline 92 % of control | [3] 94 % of control | [2] 97 % of control | dose: 200.0 mg/kg/injection, schedule: Q01DX009 (ip), vehicle: saline 114 % of control | [4] 105 % of control

O=C(N/N=C/c1ccc(Cl)cc1Cl)C(O)(c1ccccc1)c1ccccc1
inactive: dose: 100.0 mg/kg/injection, schedule: Q01DX001 (ip), vehicle: carboxymethylcellulose (CMC) 111 % of control | dose: 200.0 mg/kg/injection, schedule: Q01DX001 (ip), vehicle: carboxymethylcellulose (CMC) 101 % of control | dose: 400.0 mg/kg/injection, schedule: Q01DX001 (ip), vehicle: carboxymethylcellulose (CMC) 92 % of control

CCc1nc(NS(=O)(=O)c2ccc(N)cc2)nc(-c2ccccc2)c1-c1ccccc1O
inactive: dose: 100.0 mg/kg/injection, schedule: Q04DX002 (ip), vehicle: Klucel (hydroxypropylcellulose) (HPC) 87 % of control | dose: 200.0 mg/kg/injection, schedule: Q04DX002 (ip), vehicle: Klucel (hydroxypropylcellulose) (HPC) 91 % of control | dose: 400.0 mg/kg/injection, schedule: Q04DX002 (ip), vehicle: Klucel (hydroxypropylcellulose) (HPC) 95 % of control

CCOc1ccccc1/C=C1\C=Nc2ccccc21
inactive: dose: 50.0 mg/kg/injection, schedule: Q01DX009 (ip), vehicle: carboxymethylcellulose (CMC) 92 % of control and 101 % of control | dose: 50.0 mg/kg/injection, schedule: Q04DX003 (ip), vehicle: carboxymethylcellulose (CMC) 96 % of control | dose: 100.0 mg/kg/injection, schedule: Q01DX009 (ip), vehicle: carboxymethylcellulose (CMC) 92 % of control and 93 % of control | dose: 100.0 mg/kg/injection, schedule: Q04DX002 (ip), vehicle: carboxymethylcellulose (CMC) 96 % of control and 99 % of control | dose: 100.0 mg/kg/injection, schedule: Q04DX003 (ip), vehicle: carboxymethylcellulose (CMC) 98 % of control | dose: 200.0 mg/kg/injection, schedule: Q01DX009 (ip), vehicle: carboxymethylcellulose (CMC) 89 % of control and 90 % of control | dose: 200.0 mg/kg/injection, schedule: Q04DX002 (ip), vehicle: carboxymethylcellulose (CMC) 89 % of control and 91 % of control | dose: 200.0 mg/kg/injection, schedule: Q04DX003 (ip), vehicle: carboxymethylcellulose (CMC) 100 % of control | dose: 400.0 mg/kg/injection, schedule: Q04DX002 (ip), vehicle: carboxymethylcellulose (CMC) 89 % of control

CCCCCN(CCCCC)C(=O)c1ccc([N+](=O)[O-])cc1
inactive: [5] 97 % of control | [6] 100 % of control | [7] 97 % of control | [8] 96 % of control | [9] 94 % of control | [10] 105 % of control

CSc1cc(C)c(O)c(CO)c1
inactive: dose: 100.0 mg/kg/injection, schedule: Q01DX009 (ip), vehicle: other 92 % of control | dose: 200.0 mg/kg/injection, schedule: Q01DX009 (ip), vehicle: other 97 % of control | dose: 400.0 mg/kg/injection, schedule: Q01DX009 (ip), vehicle: other 92 % of control

O=C(O)c1cc2ccccc2[nH]1
inactive: [11] 95 % of control | [12] 95 % of control | [13] 90 % of control

CCOC(=O)N/N=C(/C)OCC
inactive: [3] 102 % of control | [4] 102 % of control

O=C(Nc1ccccc1C(F)(F)F)OCCOc1ccc(Cl)cc1
inactive: [5] 98 % of control | [7] 91 % of control | [9] 87 % of control

N#CCCOP(=O)(O)O
inactive: dose: 100.0 mg/kg/injection, schedule: Q01DX001 (ip), vehicle: Klucel (hydroxypropylcellulose) (HPC) 101 % of control | dose: 200.0 mg/kg/injection, schedule: Q01DX001 (ip), vehicle: Klucel (hydroxypropylcellulose) (HPC) 98 % of control | dose: 400.0 mg/kg/injection, schedule: Q01DX001 (ip), vehicle: Klucel (hydroxypropylcellulose) (HPC) 88 % of control

CC1=CC(=O)C=CC1=Nc1cc(Cl)c(O)c(Cl)c1
inactive: dose: 50.0 mg/kg/injection, schedule: Q01DX001 (ip), vehicle: saline 101 % of control | [1] 95 % of control

OC1(C2(O)CCCC2)CCCC1
inactive: [11] 98 % of control | [12] 98 % of control | [13] 95 % of control

COc1cc(C=Nc2cc(Br)c(O)c(Br)c2)ccc1N(CCCCl)CCCCl
inactive: [6] 97 % of control | [8] 100 % of control | [10] 102 % of control

O=c1[nH]c2ccccc2[nH]1
inactive: dose: 12.5 mg/kg/injection, schedule: Q04DX002 (ip), vehicle: Klucel (hydroxypropylcellulose) (HPC) 90 % of control | dose: 25.0 mg/kg/injection, schedule: Q04DX002 (ip), vehicle: Klucel (hydroxypropylcellulose) (HPC) 87 % of control | dose: 50.0 mg/kg/injection, schedule: Q01DX009 (ip), vehicle: Klucel (hydroxypropylcellulose) (HPC) 95 % of control | dose: 50.0 mg/kg/injection, schedule: Q04DX002 (ip), vehicle: Klucel (hydroxypropylcellulose) (HPC) 90 % of control | dose: 75.0 mg/kg/injection, schedule: Q01DX009 (ip), vehicle: Klucel (hydroxypropylcellulose) (HPC) 94 % of control | dose: 115.0 mg/kg/injection, schedule: Q01DX009 (ip), vehicle: Klucel (hydroxypropylcellulose) (HPC) 97 % of control | dose: 170.0 mg/kg/injection, schedule: Q01DX009 (ip), vehicle: Klucel (hydroxypropylcellulose) (HPC) 89 % of control

CCN(CC)C(=S)[S][Pb]([c]1ccccc1)([c]1ccccc1)[c]1ccccc1
inactive: dose: 100.0 mg/kg/injection, schedule: Q01DX001 (ip), vehicle: steriod suspending solution 97 % of control | dose: 200.0 mg/kg/injection, schedule: Q01DX001 (ip), vehicle: steriod suspending solution 92 % of control

Cc1ccc(C(=O)/C=C/N2CCN(c3ccccc3)CC2)c(C)c1
inactive: [11] 100 % of control | [12] 105 % of control | [13] 98 % of control

O/N=C(\Cl)c1ccc(/C(Cl)=N\O)cc1
inactive: dose: 5.0 mg/kg/injection, schedule: Q01DX001 (ip), vehicle: saline 111 % of control | dose: 10.0 mg/kg/injection, schedule: Q01DX001 (ip), vehicle: saline 105 % of control | dose: 20.0 mg/kg/injection, schedule: Q01DX001 (ip), vehicle: saline 100 % of control

O=C(O)CCC(C(=O)O)N1C(=O)c2ccccc2C1=O (stereo unspecified)
inactive: [11] 97 % of control | [12] 102 % of control | [13] 105 % of control

O=C(O)c1cc(Cc2c[nH]c(=O)[nH]c2=O)ccc1O
inactive: dose: 50.0 mg/kg/injection, schedule: Q01DX005 (ip), vehicle: water 109 % of control | dose: 100.0 mg/kg/injection, schedule: Q01DX005 (ip), vehicle: water 98 % of control | dose: 200.0 mg/kg/injection, schedule: Q01DX005 (ip), vehicle: water 102 % of control

Brc1ncnc2nc[nH]c12
inactive: dose: 62.5 mg/kg/injection, schedule: Q01DX Z (ip), vehicle: carboxymethylcellulose (CMC) 97 % of control | dose: 75.0 mg/kg/injection, schedule: Q01DX Z (ip), vehicle: carboxymethylcellulose (CMC) 120 % of control | dose: 100.0 mg/kg/injection, schedule: Q01DX Z (ip), vehicle: methylcellulose (MC) 111 % of control | dose: 125.0 mg/kg/injection, schedule: Q01DX Z (ip), vehicle: carboxymethylcellulose (CMC) 121 % of control | dose: 200.0 mg/kg/injection, schedule: Q01DX Z (ip), vehicle: methylcellulose (MC) 120 % of control

CCN(C(=O)Nc1ccc([N+](=O)[O-])cc1OC)c1cccc(C)c1
inactive: [5] 94 % of control | [7] 97 % of control | [9] 100 % of control

CCOc1ccc(NC(C)=O)c(OC(C)=O)c1
inactive: dose: 75.0 mg/kg/injection, schedule: Q01DX001 (ip), vehicle: carboxymethylcellulose (CMC) 95 % of control and 100 % of control | dose: 150.0 mg/kg/injection, schedule: Q01DX001 (ip), vehicle: carboxymethylcellulose (CMC) 100 % of control | dose: 300.0 mg/kg/injection, schedule: Q01DX001 (ip), vehicle: carboxymethylcellulose (CMC) 93 % of control
